From ChEMBL document CHEMBL4138086, “Design and synthesis of bis(indolyl)ketohydrazide-hydrazones: Identification of potent and selective novel tubulin inhibitors” (Eur J Med Chem, 2017)
pIC50: −log10 of the molar value. The source made the active and inactive calls. The calls are words filed in the database; no cut-off is given here.

Columns and labels:
BT-474 [1] = assay: Cytotoxicity against human BT474 cells assessed as cell survival at 10 uM after 48 hrs by MTT assay relative to control; type: functional; conditions: BT-474, 48 h, read-out: Survival
Jurkat [2] = assay: Cytotoxicity against human Jurkat cells assessed as reduction in cell survival after 48 hrs by MTT assay; type: functional, cell-based
MDA-MB-231 [3] = assay: Cytotoxicity against human MDA-MB-231 cells assessed as reduction in cell survival after 48 hrs by MTT assay; type: functional, cell-based; conditions: MDA-MB-231, 48 h
Jurkat [4] = assay: Induction of apoptosis in human Jurkat cells increase in caspase 3/7 activity at 1 uM measured up to 180 mins by fluorescence assay relative to control; type: functional
Jurkat [5] = assay: Cytotoxicity against human Jurkat cells assessed as cell survival at 10 uM after 48 hrs by MTT assay relative to control; type: functional; conditions: read-out: Survival
HCT-116 [6] = assay: Cytotoxicity against human HCT116 cells assessed as cell survival at 10 uM after 48 hrs by MTT assay relative to control; type: functional; conditions: HCT-116, 48 h, read-out: Survival
MCF7 [7] = assay: Cytotoxicity against human MCF7 cells assessed as cell survival at 10 uM after 48 hrs by MTT assay relative to control; type: functional; conditions: MCF7, 48 h, read-out: Survival
HCT-116 [8] = assay: Cytotoxicity against human HCT116 cells assessed as reduction in cell survival after 48 hrs by MTT assay; type: functional, cell-based; conditions: HCT-116, 48 h
MDA-MB-231 [9] = assay: Cytotoxicity against human MDA-MB-231 cells assessed as cell survival at 10 uM after 48 hrs by MTT assay relative to control; type: functional; conditions: MDA-MB-231, 48 h, read-out: Survival
MCF7 [10] = assay: Cytotoxicity against human MCF7 cells assessed as reduction in cell survival after 48 hrs by MTT assay; type: functional, cell-based; conditions: MCF7, 48 h
DU-145 = assay: Cytotoxicity against human DU145 cells assessed as reduction in cell viability; type: functional, cell-based
P388 = assay: Cytotoxicity against mouse P388 cells assessed as reduction in cell viability; type: functional, cell-based
BT-474 [11] = assay: Cytotoxicity against human BT474 cells assessed as reduction in cell survival after 48 hrs by MTT assay; type: functional, cell-based; conditions: BT-474, 48 h
Capra hircus = organism: Capra hircus; assay: Inhibition of colchicine binding to goat brain tubulin pre-incubated for 20 mins before colchine addition and measured after 45 mins by fluorescence based assay
Sus scrofa [12] = organism: Sus scrofa; assay: (§1) Inhibition of porcine brain tubulin polymerization incubated for 5 mins by fluorimetry
[13] = as §1; parameters: species or system Sus scrofa
Sus scrofa [14] = organism: Sus scrofa; assay: Inhibition of porcine brain tubulin polymerization at 0.6 uM incubated for 5 mins by fluorimetry
MCF7 [15] = assay: Cell cycle arrest in human MCF7 cells assessed as G2/M phase accumulation at 3 uM after […] by propidium iodide staining based flow cytometry; type: functional
MDA-MB-231 [16] = assay: Toxicity in human MDA-MB-231 cells at 20 uM after 40 hrs by LDH assay; type: cell-based; conditions: mda-mb-231, 40 h
HCT-116 [17] = assay: Toxicity in human HCT116 cells at 20 uM after 40 hrs by LDH assay; type: cell-based; conditions: hct-116, 40 h
MCF7 [18] = assay: Toxicity in human MCF7 cells at 20 uM after 40 hrs by LDH assay; type: cell-based; conditions: mcf7, 40 h
Jurkat [19] = assay: Toxicity in human Jurkat cells at 20 uM after 40 hrs by LDH assay; type: cell-based
BT-474 [20] = assay: Toxicity in human BT474 cells at 20 uM after 40 hrs by LDH assay; type: cell-based; conditions: bt-474, 40 h
[21] = target: Cyclin-dependent kinase 4 (Homo sapiens, UniProt P11802); assay: Inhibition of CDK4 (unknown origin)
Chain of Cyclin-dependent kinase 4 (P11802 whole entry): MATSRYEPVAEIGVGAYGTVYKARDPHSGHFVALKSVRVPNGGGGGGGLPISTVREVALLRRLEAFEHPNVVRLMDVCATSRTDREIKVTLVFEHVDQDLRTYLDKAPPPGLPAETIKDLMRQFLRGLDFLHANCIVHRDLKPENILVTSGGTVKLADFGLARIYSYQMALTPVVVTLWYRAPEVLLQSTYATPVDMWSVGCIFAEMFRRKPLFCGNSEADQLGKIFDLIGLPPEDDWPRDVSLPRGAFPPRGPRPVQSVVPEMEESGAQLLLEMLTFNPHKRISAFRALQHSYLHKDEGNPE

[22] = target: Receptor tyrosine-protein kinase erbB-2 (Homo sapiens, UniProt P04626); assay: Inhibition of c-erbbeta2 (unknown origin)
Chain of Receptor tyrosine-protein kinase erbB-2 (P04626 whole entry): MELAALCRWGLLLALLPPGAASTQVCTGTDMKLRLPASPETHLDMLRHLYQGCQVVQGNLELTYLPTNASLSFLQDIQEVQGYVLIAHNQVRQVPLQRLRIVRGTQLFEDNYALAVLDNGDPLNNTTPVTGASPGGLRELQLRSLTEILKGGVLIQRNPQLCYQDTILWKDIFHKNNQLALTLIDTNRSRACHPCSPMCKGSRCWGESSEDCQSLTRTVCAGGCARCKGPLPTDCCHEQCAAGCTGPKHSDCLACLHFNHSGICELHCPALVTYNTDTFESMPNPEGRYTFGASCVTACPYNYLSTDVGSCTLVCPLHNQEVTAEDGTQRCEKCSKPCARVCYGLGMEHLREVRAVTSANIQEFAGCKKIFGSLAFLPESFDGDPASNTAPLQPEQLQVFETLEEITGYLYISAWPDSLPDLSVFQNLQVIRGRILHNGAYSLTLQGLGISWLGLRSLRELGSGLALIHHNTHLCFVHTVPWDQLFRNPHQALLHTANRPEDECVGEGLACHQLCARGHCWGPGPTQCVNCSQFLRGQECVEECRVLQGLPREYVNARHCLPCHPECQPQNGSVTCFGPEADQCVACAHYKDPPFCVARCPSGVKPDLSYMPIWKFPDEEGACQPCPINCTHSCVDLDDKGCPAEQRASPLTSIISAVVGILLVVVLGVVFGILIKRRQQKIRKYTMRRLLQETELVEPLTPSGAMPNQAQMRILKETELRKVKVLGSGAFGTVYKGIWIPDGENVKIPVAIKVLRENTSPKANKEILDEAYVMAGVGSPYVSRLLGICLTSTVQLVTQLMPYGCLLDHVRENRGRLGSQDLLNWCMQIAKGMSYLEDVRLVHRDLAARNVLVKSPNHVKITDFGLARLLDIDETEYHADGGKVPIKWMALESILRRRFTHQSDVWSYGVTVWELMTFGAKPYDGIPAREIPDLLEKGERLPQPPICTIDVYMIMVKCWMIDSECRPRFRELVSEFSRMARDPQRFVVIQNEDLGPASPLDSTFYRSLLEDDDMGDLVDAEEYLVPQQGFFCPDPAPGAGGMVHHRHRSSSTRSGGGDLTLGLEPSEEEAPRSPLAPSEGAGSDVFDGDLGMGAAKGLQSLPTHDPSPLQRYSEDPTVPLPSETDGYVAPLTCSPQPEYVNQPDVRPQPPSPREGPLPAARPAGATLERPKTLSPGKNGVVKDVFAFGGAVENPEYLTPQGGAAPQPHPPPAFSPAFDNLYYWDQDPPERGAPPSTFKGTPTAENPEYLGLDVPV

A549 = assay: Cytotoxicity against human A549 cells assessed as reduction in cell viability; type: functional, cell-based
MDA-MB-231 [23] = assay: Cytotoxicity against human MDA-MB-231 cells assessed as reduction in cell viability; type: functional, cell-based
HCT-8 = assay: Cytotoxicity against human HCT8 cells assessed as reduction in cell viability; type: functional, cell-based
Sus scrofa [24] = organism: Sus scrofa; assay: Inhibition of porcine brain tubulin polymerization at 3.2 uM incubated for 5 mins by fluorimetry

| Structure (SMILES) | viability at 10 µM (BT-474 [1]) [%] | viability at 10 µM (Jurkat [5]) [%] | viability at 10 µM (HCT-116 [6]) [%] | viability at 10 µM (MCF7 [7]) [%] | viability at 10 µM (MDA-MB-231 [9]) [%] | further results |
| --- | --- | --- | --- | --- | --- | --- |
| O=C(N/N=C/c1c[nH]c2ccc(Br)cc12)C(=O)c1c[nH]c2ccccc12 | 82.4 | 25.5 | 26.3 | 35 | 34 | pIC50 (Jurkat [2]): 5.30; pIC50 (MDA-MB-231 [3]): 5.25; fold change (FC) (Jurkat [4]): 2 - 5; pIC50 (HCT-116 [8]): 5.18; pIC50 (MCF7 [10]): 5.48 |
| O=C(N/N=C/c1cn(Cc2ccc(Cl)cc2)c2ccc(Br)cc12)C(=O)c1c[nH]c2ccccc12 | 94.7 | 93.2 | 72.6 | 107 | 88.8 | – |
| COc1ccc2c(c1)c(/C=N/NC(=O)C(=O)c1c[nH]c3ccc(Br)cc13)cn2Cc1ccc(Cl)cc1 | 99.1 | 46.6 | 86.1 | 96.1 | 103 | – |
| O=C(N/C=C/c1c[nH]c2ccc(Br)cc12)C(=O)c1c[nH]c2c(O)cccc12 | – | – | – | – | – | pIC50 (DU-145): 5.12 |
| O=C(N/N=C/c1c[nH]c2cc(F)ccc12)C(=O)c1c[nH]c2ccccc12 | 88.2 | 69.9 | 104 | 40.2 | 106 | – |
| O=C(N/N=C/c1c[nH]c2ccc(F)cc12)C(=O)c1c[nH]c2ccccc12 | 112 | 56.7 | 85.1 | 105 | 102 | – |
| COc1cccc(/C=N/NC(=O)C(=O)c2c[nH]c3ccccc23)c1 | 95.1 | 59.7 | 72.4 | 96.8 | 97.2 | – |
| O=C(N/N=C/c1c[nH]c2cc(Br)ccc12)C(=O)c1c[nH]c2ccccc12 | 86.8 | 75.4 | 94.5 | 92.7 | 95.1 | – |
| O=C(N/C=C/c1c[nH]c2ccccc12)C(=O)c1c[nH]c2ccccc12 | – | – | – | – | – | pIC50 (DU-145): 5.12 |
| COc1ccc2c(/C=N/NC(=O)C(=O)c3c[nH]c4ccccc34)c[nH]c2c1 | 95.6 | 52.1 | 38.8 | 34.6 | 103 | pIC50 (Jurkat [2]): 5.00; pIC50 (HCT-116 [8]): 5.60; pIC50 (MCF7 [10]): 5.21 |
| Brc1ccc2c(-c3c[nH]c(-c4c[nH]c5cc(Br)ccc45)n3)c[nH]c2c1 [NORTOPSENTIN A] | – | – | – | – | – | pIC50 (P388): 4.68 to 5.35 |
| Cn1c(-c2cn(C)c3ccccc23)cnc1-c1cn(C)c2cc(Br)ccc12 [N-METHYL NORTOPSENTIN B] | – | – | – | – | – | pIC50 (P388): 4.68 to 5.35 |
| O=C(Nc1ccncc1)C(=O)c1cn(Cc2ccc(Cl)cc2)c2ccccc12 [INDIBULIN] | – | – | – | – | – | pIC50 (MCF7 [10]): 5.96 |
| COc1ccc(-c2[nH]c3ccccc3c2/C=N/NC(=O)C(=O)c2c[nH]c3ccccc23)cc1 | 94.2 | 81.6 | 71.8 | 107 | 98.8 | – |
| COc1ccc2c(/C=N/NC(=O)C(=O)c3c[nH]c4ccc(Br)cc34)c[nH]c2c1 | 92 | 74.1 | 71.4 | 91.4 | 112 | – |
| COc1ccc(Cn2cc(/C=N/NC(=O)C(=O)c3c[nH]c4ccc(Br)cc34)c3cc(OC)ccc32)cc1 | 91.1 | 81.9 | 65.7 | 112 | 102 | – |
| COc1ccc2[nH]cc(/C=N/NC(=O)C(=O)c3c[nH]c4ccccc34)c2c1 | 20.3 | 19.3 | 17.6 | 17.2 | 21.6 | pIC50 (Jurkat [2]): 6.30; pIC50 (MDA-MB-231 [3]): 5.77; fold change (FC) (Jurkat [4]): 2 - 5; pIC50 (BT-474 [11]): 5.96; pIC50 (HCT-116 [8]): 6.40; pIC50 (MCF7 [10]): 5.74 |
| COc1cccc2c1C(=O)c1c(O)c3c(c(O)c1C2=O)C[C@@](O)(C(=O)CO)C[C@@H]3O[C@H]1C[C@H](N)[C@H](O)[C@H](C)O1 [DOXORUBICIN] | 17.6 | 21 | 25 | 27 | 22.5 | pIC50 (Jurkat [2]): 6.59; pIC50 (MDA-MB-231 [3]): 6.26; pIC50 (BT-474 [11]): 6.52 |
| COc1ccc(/C=N/NC(=O)C(=O)c2c[nH]c3ccccc23)cc1OC | 103 | 78.9 | 92.8 | 99.8 | 94.6 | – |
| O=C(N/N=C/c1c[nH]c2cc(F)ccc12)C(=O)c1c[nH]c2ccc(Br)cc12 | 94.8 | 95.8 | 84.2 | 97.5 | 111 | – |
| O=C(N/N=C/c1c[nH]c2ccccc12)C(=O)c1c[nH]c2ccccc12 | 83 | 33.6 | 88.4 | 99.2 | 98.6 | – |
| O=C(N/N=C/c1ccncc1)C(=O)c1cn(Cc2ccc(Cl)cc2)c2ccccc12 | 78.7 | 66.7 | 69.1 | 82.2 | 71.2 | – |
| O=C(N/N=C/c1c[nH]c2ccccc12)C(=O)c1cn(Cc2ccc(Cl)cc2)c2ccccc12 | 22.5 | 20.6 | 13.3 | 15 | 17.1 | pIC50 (Jurkat [2]): 6.66; inhibition (Capra hircus): Dose-dependent effect; pIC50 (MDA-MB-231 [3]): 6.30; inhibition (Sus scrofa [12]): Dose-dependent effect; pIC50 [13]: 6.22; inhibition (Sus scrofa [14]): 50%; fold change (FC) (Jurkat [4]): 2 - 5; pIC50 (BT-474 [11]): 5.68; Activity (MCF7 [15]): Active; Activity (MDA-MB-231 [16]): 20 to 25%; Activity (HCT-116 [17]): 20 to 25%; Activity (MCF7 [18]): 20 to 25%; Activity (Jurkat [19]): 20 to 25%; pIC50 (HCT-116 [8]): 6.82; Activity (BT-474 [20]): 20 to 25%; pIC50 (MCF7 [10]): 6.10 |
| O=C1N=C(C(=O)c2c[nH]c3ccccc23)N/C1=C\c1c[nH]c2cc(O)ccc12 | – | – | – | – | – | pIC50 [21]: 4.90; pIC50 [22]: 5.13 |
| CN1CC(c2c[nH]c3cc(Br)ccc23)N(C)CC1c1c[nH]c2cc(Br)ccc12 (centres undefined) | – | – | – | – | – | pIC50 (A549): 5.00 to 6.00; pIC50 (MDA-MB-231 [23]): 5.00 to 6.00; pIC50 (P388): 4.82; pIC50 (HCT-8): 5.00 to 6.00 |
| COc1ccc(/C=N/NC(=O)C(=O)c2c[nH]c3ccccc23)cc1 | 97.5 | 61.9 | 101 | 106 | 102 | – |
| O=C(N/C=C/c1c[nH]c2cc(Br)ccc12)C(=O)c1c[nH]c2ccccc12 | – | – | – | – | – | pIC50 (DU-145): 5.12 |
| COc1ccc2[nH]cc(/C=N/NC(=O)C(=O)c3cn(Cc4ccc(Cl)cc4)c4ccccc34)c2c1 | 21.2 | 36.1 | 38.2 | 33.7 | 29.4 | pIC50 (Jurkat [2]): 5.44; pIC50 (MDA-MB-231 [3]): 5.54; inhibition (Sus scrofa [12]): Dose-dependent effect; inhibition (Sus scrofa [24]): 50%; fold change (FC) (Jurkat [4]): 2 - 5; pIC50 (BT-474 [11]): 5.57; Activity (MDA-MB-231 [16]): 20 to 25%; Activity (HCT-116 [17]): 20 to 25%; Activity (MCF7 [18]): 20 to 25%; Activity (Jurkat [19]): 20 to 25%; pIC50 (HCT-116 [8]): 5.38; Activity (BT-474 [20]): 20 to 25%; pIC50 (MCF7 [10]): 5.42 |
| COc1cc(/C=N/NC(=O)C(=O)c2c[nH]c3ccccc23)cc(OC)c1OC | 101 | 69.6 | 99.1 | 110 | 103 | – |
| Brc1ccc2c(-c3c[nH]c(-c4c[nH]c5ccccc45)n3)c[nH]c2c1 [NORTOPSENTIN C] | – | – | – | – | – | pIC50 (P388): 4.68 to 5.35 |
